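Protocol summary: plate cells (96-well), add compound at 5 concentrations, incubate 48 h, interpolate endpoints linearly. GI50 marks 50% less growth. At the TGI there is no net growth.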
Key:
Assay in all cases: NCI anticancer screen, dose series, 48 h
OVCAR-3 ovarian = test system: OVCAR-3 ovarian
COLO 205 colon = test system: COLO 205 colon
A549 NSCLC = test system: A549 NSCLC
NCI-H460 lung = test system: NCI-H460 lung
SF-295 CNS = test system: SF-295 CNS
HCT-15 colon = test system: HCT-15 colon
T-47D breast = test system: T-47D breast
IGROV1 ovarian = test system: IGROV1 ovarian
SNB-19 CNS = test system: SNB-19 CNS
MOLT-4 leukemia = test system: MOLT-4 leukemia
HOP-62 NSCLC = test system: HOP-62 NSCLC
TK-10 renal = test system: TK-10 renal
LOX IMVI melanoma = test system: LOX IMVI melanoma
CCRF-CEM leukemia = test system: CCRF-CEM leukemia
UO-31 renal = test system: UO-31 renal
NCI-H522 lung = test system: NCI-H522 lung
K-562 leukemia = test system: K-562 leukemia
HL-60(TB) leukemia = test system: HL-60(TB) leukemia
NCI/ADR-RES ovarian = test system: NCI/ADR-RES ovarian
KM12 colon = test system: KM12 colon
RXF 393 renal = test system: RXF 393 renal
M14 melanoma = test system: M14 melanoma
NCI-H226 lung = test system: NCI-H226 lung
SR leukemia = test system: SR leukemia
UACC-257 melanoma = test system: UACC-257 melanoma
OVCAR-5 ovarian = test system: OVCAR-5 ovarian
HT29 colon = test system: HT29 colon
MDA-MB-231 breast = test system: MDA-MB-231 breast
DU-145 prostate = test system: DU-145 prostate
RPMI-8226 leukemia = test system: RPMI-8226 leukemia
SK-MEL-5 melanoma = test system: SK-MEL-5 melanoma
OVCAR-8 ovarian = test system: OVCAR-8 ovarian
SN12C renal = test system: SN12C renal
MCF7 breast = test system: MCF7 breast
U251 CNS = test system: U251 CNS
UACC-62 melanoma = test system: UACC-62 melanoma
HS 578T breast = test system: HS 578T breast
MDA-MB-435 = test system: MDA-MB-435
BT-549 breast = test system: BT-549 breast
HOP-92 NSCLC = test system: HOP-92 NSCLC
786-0 renal = test system: 786-0 renal
SW-620 colon = test system: SW-620 colon
OVCAR-4 ovarian = test system: OVCAR-4 ovarian
NCI-H23 lung = test system: NCI-H23 lung
A498 renal = test system: A498 renal
SF-268 CNS = test system: SF-268 CNS
SK-OV-3 ovarian = test system: SK-OV-3 ovarian
HCT-116 colon = test system: HCT-116 colon
CAKI-1 renal = test system: CAKI-1 renal
SK-MEL-2 melanoma = test system: SK-MEL-2 melanoma
HCC-2998 colon = test system: HCC-2998 colon
SK-MEL-28 melanoma = test system: SK-MEL-28 melanoma
ACHN renal = test system: ACHN renal
MALME-3M melanoma = test system: MALME-3M melanoma
PC-3 prostate = test system: PC-3 prostate
EKVX NSCLC = test system: EKVX NSCLC
SNB-75 CNS = test system: SNB-75 CNS
SF-539 CNS = test system: SF-539 CNS

In the case of `O=C(Nc1ccc(Br)cc1F)c1cc(Cl)ccc1O`, the GI50 (OVCAR-3 ovarian) was 0.476 µM, the TGI (OVCAR-3 ovarian) was > 26.6 µM and the GI50 (COLO 205 colon) was 2.74 µM. The TGI (COLO 205 colon) was 8.2 µM, the GI50 (A549 NSCLC) was 2.78 µM and the TGI (A549 NSCLC) was > 100 µM. For the same compound, the GI50 (NCI-H460 lung) was 0.487 µM, the TGI (NCI-H460 lung) was > 66.5 µM and the GI50 (SF-295 CNS) was 1.77 µM. For the same compound, the TGI (SF-295 CNS) was 3.65 µM, the GI50 (HCT-15 colon) was 0.972 µM and the TGI (HCT-15 colon) was 10.5 µM. The GI50 (T-47D breast) was 0.466 µM, the TGI (T-47D breast) was 4.83 µM and the GI50 (IGROV1 ovarian) was 0.388 µM. For the same compound, the TGI (IGROV1 ovarian) was > 100 µM, the GI50 (SNB-19 CNS) was 0.418 µM and the TGI (SNB-19 CNS) was > 100 µM. It also gave a GI50 (MOLT-4 leukemia) of 1.76 µM, a TGI (MOLT-4 leukemia) of 5.11 µM and a GI50 (HOP-62 NSCLC) of 1.64 µM. It also gave a TGI (HOP-62 NSCLC) of 5.22 µM, a GI50 (TK-10 renal) of 3.5 µM and a TGI (TK-10 renal) of 10.2 µM. The GI50 (LOX IMVI melanoma) was 0.501 µM, the TGI (LOX IMVI melanoma) was 3.76 µM and the GI50 (CCRF-CEM leukemia) was 2.08 µM. For the same compound, the TGI (CCRF-CEM leukemia) was 7.63 µM, the GI50 (UO-31 renal) was 0.207 µM and the TGI (UO-31 renal) was 2.36 µM. It also gave a GI50 (NCI-H522 lung) of 0.361 µM, a TGI (NCI-H522 lung) of 4.34 µM and a GI50 (K-562 leukemia) of 0.489 µM. For the same compound, the TGI (K-562 leukemia) was > 50.7 µM, the GI50 (HL-60(TB) leukemia) was 0.481 µM and the TGI (HL-60(TB) leukemia) was 3.19 µM. For the same compound, the GI50 (NCI/ADR-RES ovarian) was 0.749 µM, the TGI (NCI/ADR-RES ovarian) was 5.67 µM and the GI50 (KM12 colon) was 2.14 µM. It also gave a TGI (KM12 colon) of 5.43 µM, a GI50 (RXF 393 renal) of 0.852 µM and a TGI (RXF 393 renal) of 3.99 µM. The GI50 (M14 melanoma) was 0.585 µM, the TGI (M14 melanoma) was 3.58 µM and the GI50 (NCI-H226 lung) was 1.2 µM. The TGI (NCI-H226 lung) was 4.57 µM, the GI50 (SR leukemia) was 0.541 µM and the TGI (SR leukemia) was > 30.1 µM. For the same compound, the GI50 (UACC-257 melanoma) was 0.731 µM, the TGI (UACC-257 melanoma) was 4.82 µM and the GI50 (OVCAR-5 ovarian) was 3.67 µM. For the same compound, the TGI (OVCAR-5 ovarian) was > 100 µM, the GI50 (HT29 colon) was 3.09 µM and the TGI (HT29 colon) was 31.5 µM. The GI50 (MDA-MB-231 breast) was 0.554 µM, the TGI (MDA-MB-231 breast) was 5.23 µM and the GI50 (DU-145 prostate) was 0.899 µM. For the same compound, the TGI (DU-145 prostate) was > 100 µM, the GI50 (RPMI-8226 leukemia) was 0.342 µM and the TGI (RPMI-8226 leukemia) was 1.88 µM. The GI50 (SK-MEL-5 melanoma) was 0.273 µM, the TGI (SK-MEL-5 melanoma) was 0.815 µM and the GI50 (OVCAR-8 ovarian) was 1.06 µM. It also gave a TGI (OVCAR-8 ovarian) of 12.8 µM, a GI50 (SN12C renal) of 0.491 µM and a TGI (SN12C renal) of 5.68 µM. The GI50 (MCF7 breast) was 1.84 µM, the TGI (MCF7 breast) was > 100 µM and the GI50 (U251 CNS) was 0.709 µM. The TGI (U251 CNS) was > 100 µM, the GI50 (UACC-62 melanoma) was 0.292 µM and the TGI (UACC-62 melanoma) was 1.16 µM. For the same compound, the GI50 (HS 578T breast) was 0.327 µM, the TGI (HS 578T breast) was 2.81 µM and the GI50 (MDA-MB-435) was 0.71 µM. For the same compound, the TGI (MDA-MB-435) was 5.88 µM, the GI50 (BT-549 breast) was 0.44 µM and the TGI (BT-549 breast) was 2.1 µM. For the same compound, the GI50 (HOP-92 NSCLC) was 0.174 µM, the TGI (HOP-92 NSCLC) was 0.557 µM and the GI50 (786-0 renal) was 2.54 µM. The TGI (786-0 renal) was 7.62 µM, the GI50 (SW-620 colon) was 1.05 µM and the TGI (SW-620 colon) was > 39.2 µM. The GI50 (OVCAR-4 ovarian) was 0.509 µM, the TGI (OVCAR-4 ovarian) was > 100 µM and the GI50 (NCI-H23 lung) was 0.492 µM. For the same compound, the TGI (NCI-H23 lung) was 5.14 µM, the GI50 (A498 renal) was 0.16 µM and the TGI (A498 renal) was 0.604 µM. It also gave a GI50 (SF-268 CNS) of 0.676 µM, a TGI (SF-268 CNS) of 9.96 µM and a GI50 (SK-OV-3 ovarian) of 0.441 µM. It also gave a TGI (SK-OV-3 ovarian) of 2.2 µM, a GI50 (HCT-116 colon) of 0.522 µM and a TGI (HCT-116 colon) of 2.45 µM. It also gave a GI50 (CAKI-1 renal) of 0.319 µM, a TGI (CAKI-1 renal) of 2.85 µM and a GI50 (SK-MEL-2 melanoma) of 0.372 µM. For the same compound, the TGI (SK-MEL-2 melanoma) was 2 µM, the GI50 (HCC-2998 colon) was 2.79 µM and the TGI (HCC-2998 colon) was 12.7 µM. The GI50 (SK-MEL-28 melanoma) was 0.399 µM, the TGI (SK-MEL-28 melanoma) was 2.07 µM and the GI50 (ACHN renal) was 0.619 µM. For the same compound, the TGI (ACHN renal) was > 31.3 µM, the GI50 (MALME-3M melanoma) was 0.434 µM and the TGI (MALME-3M melanoma) was 2.67 µM. The GI50 (PC-3 prostate) was 1.87 µM, the TGI (PC-3 prostate) was 6.68 µM and the GI50 (EKVX NSCLC) was 1.12 µM. The TGI (EKVX NSCLC) was > 26.2 µM, the GI50 (SNB-75 CNS) was 0.202 µM and the TGI (SNB-75 CNS) was 2.4 µM. For the same compound, the GI50 (SF-539 CNS) was 0.594 µM and the TGI (SF-539 CNS) was 5.85 µM.
